Measurements published in patent US8217053B2, “Camptothecin derivatives with antitumor activity” (Indena S.p.A., priority 2006, dated 2012).
Values after ≈ are worked out from the molar mass of the structure shown.

Legend:
[1] = molecular target: T1, human recombinant enzyme (full length top1) (Homo sapiens, UniProt P11387); experiment: Topoisomerase-I-dependent DNA rupture assay (DNA damage persistence); assay type: biochemical; details: 0.6 M NaCl added after 30 min incubation with 10 μM of the drug
T1 construct: the human recombinant enzyme (full length top1)
T1 sequence (P11387 1-765): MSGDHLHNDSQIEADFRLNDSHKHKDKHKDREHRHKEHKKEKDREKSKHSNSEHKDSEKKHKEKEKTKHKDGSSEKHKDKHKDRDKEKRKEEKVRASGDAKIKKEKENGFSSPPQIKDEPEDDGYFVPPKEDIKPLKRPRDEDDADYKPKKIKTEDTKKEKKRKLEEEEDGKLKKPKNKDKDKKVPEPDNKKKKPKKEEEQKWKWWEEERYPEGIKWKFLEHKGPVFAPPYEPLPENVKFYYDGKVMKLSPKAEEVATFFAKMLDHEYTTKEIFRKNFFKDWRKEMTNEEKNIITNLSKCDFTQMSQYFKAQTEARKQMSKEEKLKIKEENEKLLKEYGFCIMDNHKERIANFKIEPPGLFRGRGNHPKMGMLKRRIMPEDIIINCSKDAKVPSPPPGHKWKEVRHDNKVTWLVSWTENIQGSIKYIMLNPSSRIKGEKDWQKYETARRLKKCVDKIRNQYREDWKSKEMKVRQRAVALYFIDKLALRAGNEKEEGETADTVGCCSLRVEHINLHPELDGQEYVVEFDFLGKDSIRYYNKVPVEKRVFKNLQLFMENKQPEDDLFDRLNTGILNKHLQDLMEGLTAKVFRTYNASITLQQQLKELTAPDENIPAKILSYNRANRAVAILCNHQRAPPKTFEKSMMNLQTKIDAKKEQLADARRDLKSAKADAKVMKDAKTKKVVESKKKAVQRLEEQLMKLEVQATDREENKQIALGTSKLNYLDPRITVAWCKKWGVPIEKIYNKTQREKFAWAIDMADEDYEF

[2] = system: NCI-H460 cell line (NSCL cancer); experiment: Cell growth inhibition assay (cytotoxicity); assay type: cell-based, human; details: counted 72 hours after exposure, 1 or 72 hr drug exposure; for IC50: Homo sapiens, NCI-H460, read-out: NCI-H460 IC50 (μg/mL) Cell count, H460 human large cell lung tumor cells; for NCI-H460 IC50 (μg/mL) Cell count: H460 human large cell lung tumor cells
Description: The compounds of the invention were tested in a cytotoxicity assay on a wide spectrum of tumour cells. By way of example, the cytotoxicity data on the NCI-H460 cell line (NSCL cancer) concerning two compounds of formula (I) are reported, using camptothecin and the drugs Topotecan and SN-38 as references:
H460 Cells from human large cell lung tumor were cultured in RPMI-1640 medium containing 10% foetal calf serum. Cell sensitivity was determined by cell growth inhibition assay after 1 or 72 hr drug exposure. The cells in logarithmic growth were collected and seeded in duplicate in 6-wells plates. […] IC50 is defined as the concentration inhibiting by 50% cell growth compared with untreated controls growth.

lung tumor model = experiment: In vivo comparison on a lung tumor model; details: dose 50 mg/kg/inj.
Description: Compound thio-SN38 (IDN6156) was transformed into thio-CPT11 (thio-Irinotecan) according to procedures for the conversion of SN38 to CPT11 (Irinotecan) reported in the literature. The resulting compound thio-irinotecan was compared in vivo with close non-sulforated analogue in clinical use (CPT11) on a lung tumor model highly sensitive to the standard references.

Row | SMILES | Persistence of DNA damage (%) ([1]; time 0 min) | Persistence of DNA damage (%) ([1]; time 1 min) | Persistence of DNA damage (%) ([1]; time 5 min) | Persistence of DNA damage (%) ([1]; time 10 min) | IC50 [2] [µg/mL] | Max BWL % (lung tumor model) [%] | TWI % (lung tumor model) [%] | Tox/Tot (lung tumor model) | LCK (0.5 g) (lung tumor model; 0.5 g) | NCI-H460 IC50 (μg/mL) Cell count [2] [µg/mL]
1 | CC[C@@]1(O)C(=O)OCc2c1cc1n(c2=S)Cc2cc3cc(O)ccc3nc2-1 [IDN 6181, 10-hydroxy-Thio-Camptothecin] | 100 | 88 | 50 | 22 | 0.035 ± 0.011 (≈ 0.092 µM) |  |  |  |  | 
2 | CC[C@@]1(O)C(=O)OCc2c1cc1n(c2=O)Cc2cc3c(CN(C)C)c(O)ccc3nc2-1 [Topotecan, reference compound] | 100 | 65 | 20 | 10 |  |  |  |  |  | 
3 | CCc1c2c(nc3ccc(O)cc13)-c1cc3c(c(=S)n1C2)COC(=O)[C@]3(O)CC [IDN 6156, ThioSN-38] | 100 | 100 | 80 | 60 | 0.0095 ± 0.0007 (≈ 0.0233 µM) |  |  |  |  | 
4 | CC[C@@]1(O)C(=O)OCc2c1cc1n(c2=S)Cc2cc3c(CN(C)C)c(O)ccc3nc2-1 [IDN 6180, Thio-Topotecan] |  |  |  |  | 0.115 ± 0.021 (≈ 0.263 µM) |  |  |  |  | 
5 | CCc1c2c(nc3ccc(OC(=O)N4CCC(N5CCCCC5)CC4)cc13)-c1cc3c(c(=O)n1C2)COC(=O)[C@]3(O)CC [CPT 11] |  |  |  |  |  | 15 | 91 | 0/5 | 1.8 | 
6 | CCc1c2c(nc3ccc(O)cc13)-c1cc3c(c(=O)n1C2)COC(=O)[C@]3(O)CC [SN38, 10-hydroxy-7-ethylcamptothecin, reference compound] | 100 | 60 | 33 | 28 |  |  |  |  |  | 
7 | CC[C@@]1(O)C(=O)OCc2c1cc1n(c2=S)Cc2cc3ccccc3nc2-1 [IDN 6070, Thio-camptothecin] | 100 | 33 | 10 | 10 | 0.05 ± 0.021 (≈ 0.137 µM) |  |  |  |  | 
8 | CC[C@@]1(O)C(=O)OCc2c1cc1n(c2=O)Cc2cc3ccccc3nc2-1 [Camptothecin] | 100 | 58 | 23 | 20 |  |  |  |  |  | 
9 | CC[C@@]1(O)C(=O)OCc2c1cc1n(c2=S)C(N=[N+]=[N-])c2cc3ccccc3nc2-1 (some centres unmarked) [IDN 6092] | 100 | 35 | 18 | 15 |  |  |  |  |  | 0.3 ± 0.07
10 | CC[C@@]1(O)C(=O)OCc2c1cc1n(c2=S)C(N=[N+]=[N-])c2cc3ccccc3nc2-1 (some centres unmarked) [IDN 6093] |  |  |  |  |  |  |  |  |  | 0.72 ± 0.2
